Data published in US20050249675A1, “Mucin synthesis inhibitors” (priority 2003, published 2005).

Legend:
[1] = test system: MUC5A/C secretion in hCLCA1 expressing H292 cells; assay: MUC5A/C secretion by ELLA in hCLCA1 expressing H292 cells; type: cell-based, human; settings: NCI-H292/hCLCA1 cells; 0 through 150 μM; 48 hours; FIG. 26
H292 clone 15 cells [2] = assay: ELLA for MUC5AC, H292 clone 15 cells (Example 11); type: cell-based, human; settings: Homo sapiens, NCI-H292; MUC5AC in conditioned media; 48 hours; average of 3 experiments
Procedure: ELLA (Enzyme-Linked Lectin Assay) was used to determine the inhibitory effect of compounds on mucus production by H292 clone 15 cells. H292 clone 15 cells, a subclone from human pulmonary mucoepidermoid carcinoma cells overexpressing hCLCA1, were grown to confluent, followed by incubation with increasing concentrations of compounds for 48 hours. Conditioned media were collected and MUC5AC (the major secretory mucin in lungs) content was determined by ELLA measurement as described below. 96 well microtiter plates were coated with a mouse monoclonal antibody against human MUC5AC (1-13M1, NeoMarkers), then incubated with test conditioned media. Bound MUC5AC was detected by horseradish peroxidase-conjugated soybean lectin that has a high affinity towards highly-glycosylated proteins such as MUC5AC. Conversion of peroxidase substrate TMB (Tetramethylbenzidine Base) was quantified by reading at 450 nm. O.D. (optical density) readings were plotted against concentrations of compounds. Linear regression was used to derive the concentration at which O.D. was reduced by 50% (IC50) when compared to vehicle-treated cells.

H292 clone 15 cells [3] = assay: Alamar Blue cytotoxicity; settings: H292 clone 15 cells; 48 hours; average of 3 experiments
[4] = test system: murine chloride channel, mCLCA1; assay: Patch clamp chloride current, HEK293 cell expressing mCLCA1; type: cell-based; settings: for Chloride Current: + ionomycin + Ca
Procedure: A HEK293 cell transfected with a plasmid expressing a murine chloride channel, mCLCA1, was patch clamped and chloride current was measured over a range of voltages (V, left column) and the results are shown in Table 3 below. Each row lists currents invoked at a particular positive voltage in the absence (−) or presence (+) of ionomycin and calcium, and in the presence of an indicated concentration of diclofenac (μM). Substantial current was invoked by the addition of 2 μM ionomycin and 2 mM calcium-compare the first two columns-indicating activation of mCLCA1 by the ionomycin/calcium treatment. For example, at 100 mV of positive voltage, the chloride current was increased from 39 nA/pF to 105 nA/pF.

| SMILES | IC50 (H292 clone 15 cells [2]) [nM] | Est. LD50 (Alamar Blue) (H292 clone 15 cells [3]) [µM] | also measured |
| --- | --- | --- | --- |
| O=C1OC(OC(=O)c2cccnc2Nc2cccc(C(F)(F)F)c2)c2ccccc21 (single isomer, unassigned; enantiomer 1) [enantiomer 1] | – | – | IC50, inhibition of MUC5A/C secretion [1]: not inhibitory |
| O=C(CC1OC(=O)c2ncccc21)c1cccnc1Nc1cccc(C(F)(F)F)c1 (centres unmarked) [Compound 1] | 2000 | 11 | – |
| COC(=O)c1ccccc1/C=C/C(=O)c1cccnc1Nc1cccc(C(F)(F)F)c1 [Compound 2] | 4000 | 16 | – |
| Cc1c(Cl)cccc1Nc1ccccc1C(=O)CC1OC(=O)c2ccccc21 (centres unmarked) [Compound 3] | 1200 | 19 | – |
| Cc1c(Cl)cccc1Nc1ccccc1C(=O)CCc1ccccc1C(=O)O [Compound 4] | 1600 | 27 | – |
| Cc1cccc(Nc2ccccc2C(=O)CC2OC(=O)c3ccccc32)c1C (centres unmarked) [Compound 5] | 4000 | 35 | – |
| Cc1cccc(Nc2ccccc2C(=O)CCc2ccccc2C(=O)O)c1C [Compound 6] | 3000 | 27 | – |
| O=C(CC1OC(=O)c2ccccc21)c1ccccc1Nc1cccc(C(F)(F)F)c1 (centres unmarked) [Compound 7] | 24000 | 69 | – |
| O=C(O)c1ccccc1CCC(=O)c1ccccc1Nc1cccc(C(F)(F)F)c1 [Compound 8] | 10000 | 30 | – |
| O=C1OC(CC(=O)c2cccnc2Oc2ccccc2)c2ccccc21 (centres unmarked) [Compound 9] | 5000 | 43 | – |
| O=C(O)c1ccccc1CCC(=O)c1cccnc1Oc1ccccc1 [Compound 10] | 44000 | 885 | – |
| O=C1OC(CC(=O)c2cccnc2Oc2cccc(Cl)c2)c2ccccc21 (centres unmarked) [Compound 11] | 2000 | 23 | – |
| O=C1OC(CC(=O)c2cccnc2Oc2ccc(F)cc2F)c2ccccc21 (centres unmarked) [Compound 12] | 1900 | 22 | – |
| O=C1OC(CC(=O)c2cccnc2Oc2cccc(Cl)c2Cl)c2ccccc21 (centres unmarked) [Compound 13] | 1000 | 10 | – |
| O=C1OC(CC(=O)c2cccnc2Oc2cccc(Br)c2)c2ccccc21 (centres unmarked) [Compound 14] | 2300 | 16 | – |
| O=C(CC1OC(=O)c2ccccc21)c1ccccc1Sc1ccccc1Cl (centres unmarked) [Compound 15] | 2500 | 15 | – |
| O=C(O)Cc1ccccc1Nc1c(Cl)cccc1Cl [diclofenac] | – | – | Inhibition of chloride channel activity ([4]; diclofenac 5 μM to 50 μM): did not inhibit chloride channel activity; Chloride Current ([4]; diclofenac 5 μM, 0 mV): 20 nA/pF; Chloride Current ([4]; diclofenac 5 μM, 20 mV): 36 nA/pF; Chloride Current ([4]; diclofenac 5 μM, 40 mV): 53 nA/pF; Chloride Current ([4]; diclofenac 5 μM, 60 mV): 72 nA/pF; Chloride Current ([4]; diclofenac 5 μM, 80 mV): 92 nA/pF; Chloride Current ([4]; diclofenac 5 μM, 100 mV): 115 nA/pF; Chloride Current ([4]; diclofenac 20 μM, 0 mV): 20 nA/pF; Chloride Current ([4]; diclofenac 20 μM, 20 mV): 34 nA/pF; Chloride Current ([4]; diclofenac 20 μM, 40 mV): 51 nA/pF; Chloride Current ([4]; diclofenac 20 μM, 60 mV): 69 nA/pF; Chloride Current ([4]; diclofenac 20 μM, 80 mV): 88 nA/pF; Chloride Current ([4]; diclofenac 20 μM, 100 mV): 109 nA/pF; Chloride Current ([4]; diclofenac 50 μM, 0 mV): 19 nA/pF; Chloride Current ([4]; diclofenac 50 μM, 20 mV): 33 nA/pF; Chloride Current ([4]; diclofenac 50 μM, 40 mV): 48 nA/pF; Chloride Current ([4]; diclofenac 50 μM, 60 mV): 66 nA/pF; Chloride Current ([4]; diclofenac 50 μM, 80 mV): 85 nA/pF; Chloride Current ([4]; diclofenac 50 μM, 100 mV): 106 nA/pF |
